Results as given in US20130172294A1, “Treatment with VB-201” (Vascular Biogenics Ltd., priority 2010, published 2013).
Values joined by “and” are separate entries in the source; they are usually repeats but may differ in a detail not shown here. Equal values may be shown once. Read-outs that look alike come from different tables or passages of the source.

Columns and labels:
[1] = Pharmacokinetics of VB-201 in human subjects, summary over the studies; assay type: in vivo
Protocol: Determination of VB-201 concentrations in plasma was performed using an HPLC-MS/MS (high performance liquid chromatography with tandem mass spectrometric detection) assay. Calibration was for a range of from 5 to 500 ng/ml for low doses and from 50 to 5000 ng/ml for high doses. Pharmacokinetic parameters were estimated by using a non-compartmental method, except for the AUC (area under curve), which was determined using a (log-) trapezoidal rule as the area above the previous trough level. All calculations were made using PKWizard (developed by Russell Barbare and Dr. […] was validated against WinNonlin (Pharsight Corp.), which is an FDA-recognized validated program. Pharmacokinetic parameters were calculated by the program according to standard methods used in the art. Calculation of the pharmacokinetic characteristics was based on the actual blood sampling time (in hours), with predose times set to zero. Concentrations below the LLOQ (lower limit of quantification; 4.974 ng/ml) were assumed to be zero.

[2] = Single-dose pharmacokinetics of VB-201 in plasma (Example 1); assay type: in vivo, human; details: for AUC(0-infinity): in ng·h/mL
Protocol: Determination of VB-201 concentrations in plasma was performed using an HPLC-MS/MS (high performance liquid chromatography with tandem mass spectrometric detection) assay. Calibration was for a range of from 5 to 500 ng/ml for low doses and from 50 to 5000 ng/ml for high doses. Pharmacokinetic parameters were estimated by using a non-compartmental method, except for the AUC (area under curve), which was determined using a (log-) trapezoidal rule as the area above the previous trough level. […] All subjects were healthy male volunteers. Five cohorts of six subjects each received a single dose of 1, 3, 10, 30 or 50 mg VB-201. 10 subjects received a placebo. The VB-201 was formulated in gelatin capsules enterocoated with Eudragit®. […] Evaluation of relative bioavailability was performed for the primary target parameters AUC (area under the concentration-time curve) and Cmax-(maximum plasma concentration).

interferon-γ (IFN-γ) = tested on: interferon-γ (IFN-γ)
Protocol: Plasma levels of interleukin-23 (IL-23) and interferon-γ (IFN-γ) were determined using the FlowCytomix human simplex kits (Bender Medsystems) for the aforementioned cytokines according to the manufacturer instructions. Acquisition of samples was performed using FacsCalibur (Becton Dickinson). Results were analyzed with the FlowCytomix Pro 2.2 Software.
Healthy subjects were treated once a day with 40 mg or 80 mg of VB-201, according to the procedures described in Example 4. Plasma was collected on day 0 (pre-dosing), on day 14 after dosing, and on day 28 after dosing (when administration lasted 28 days). Plasma levels of interleukin-23 (IL-23) and interferon-γ (IFN-γ) were determined as described hereinabove.

CCCCCCCCCCCCCCCCOCC(COP(=O)([O-])OCC[N+](C)(C)C)OCCCCC(=O)O (centres unmarked) [VB-201, 1-hexadecyl-2-(4′-carboxybutyl)-glycerol-3-phosphocholine]
time of peak plasma concentrations after administration ([1]; oral, over the studies): 6 to 11 h | minimum concentration during a 24-hour period relative to maximum concentration ([1]; regular once-daily administration (FIGS. 2 and 4)): at least 66.7% | AUC(0-168) ([2]; single oral dose 1 mg): 501 ± 241 ng·h/mL | AUC(0-last non-BLQ) ([2]; single oral dose 1 mg): 388 ± 168 ng·h/mL | AUMC ([2]; single oral dose 1 mg): 70178 ± 38633 hours^2*ng/ml | Cavg (0-168) ([2]; single oral dose 1 mg): 2.98 ± 1.43 ng/mL | Cl/F ([2]; single oral dose 1 mg): 1.44 ± 0.087 L/h | Cmax ([2]; single oral dose 1 mg): 12.52 ± 2.42 ng/mL | Estimated amount circulating ([2]; single oral dose 1 mg): 0.26 ± 0.05 mg | Estimated minimum bioavailability ([2]; single oral dose 1 mg): 26 ± 5% | Ke ([2]; single oral dose 1 mg): 0.0165 ± 0.0099 h⁻¹ | MTT ([2]; single oral dose 1 mg): 76 ± 27 h | T1/2 ([2]; single oral dose 1 mg): 51 ± 19 h | Tmax ([2]; single oral dose 1 mg): 8.0 ± 2.1 h | AUC(0-infinity) ([2]; single oral dose 1 mg): 840 ± 309 | AUC(0-168) ([2]; single oral dose 3 mg): 2575 ± 1027 ng·h/mL | AUC(0-last non-BLQ) ([2]; single oral dose 3 mg): 2234 ± 1259 ng·h/mL | AUMC ([2]; single oral dose 3 mg): 214719 ± 133999 hours^2*ng/ml | Cavg (0-168) ([2]; single oral dose 3 mg): 15.33 ± 6.11 ng/mL | Cl/F ([2]; single oral dose 3 mg): 1.21 ± 0.49 L/h | Cmax ([2]; single oral dose 3 mg): 53.21 ± 19.43 ng/mL | Estimated amount circulating ([2]; single oral dose 3 mg): 1.12 ± 0.41 mg | Estimated minimum bioavailability ([2]; single oral dose 3 mg): 37 ± 14% | Ke ([2]; single oral dose 3 mg): 0.015 ± 0.0027 h⁻¹ | MTT ([2]; single oral dose 3 mg): 70 ± 16 h | T1/2 ([2]; single oral dose 3 mg): 48 ± 10 h | Tmax ([2]; single oral dose 3 mg): 8.2 ± 3.9 h | AUC(0-infinity) ([2]; single oral dose 3 mg): 2886 ± 1262 | AUC(0-168) ([2]; single oral dose 10 mg): 6138 ± 2259 ng·h/mL | AUC(0-last non-BLQ) ([2]; single oral dose 10 mg): 5634 ± 2705 ng·h/mL | AUMC ([2]; single oral dose 10 mg): 333614 ± 227308 hours^2*ng/ml | Cavg (0-168) ([2]; single oral dose 10 mg): 36.53 ± 13.44 ng/mL | Cl/F ([2]; single oral dose 10 mg): 1.83 ± 0.84 L/h | Cmax ([2]; single oral dose 10 mg): 131.7 ± 20.47 ng/mL | Estimated amount circulating ([2]; single oral dose 10 mg): 2.77 ± 0.62 mg | Estimated minimum bioavailability ([2]; single oral dose 10 mg): 28 ± 6% | Ke ([2]; single oral dose 10 mg): 0.0191 ± 0.0026 h⁻¹ | MTT ([2]; single oral dose 10 mg): 46 ± 20 h | T1/2 ([2]; single oral dose 10 mg): 37 ± 5 h | Tmax ([2]; single oral dose 10 mg): 7.1 ± 1.9 h | AUC(0-infinity) ([2]; single oral dose 10 mg): 6395 ± 2551 | AUC(0-168) ([2]; single oral dose 30 mg): 23243 ± 7277 ng·h/mL | AUC(0-last non-BLQ) ([2]; single oral dose 30 mg): 23243 ± 7277 ng·h/mL | AUMC ([2]; single oral dose 30 mg): 1463889 ± 520387 hours^2*ng/ml | Cavg (0-168) ([2]; single oral dose 30 mg): 138.4 ± 43.32 ng/mL | Cl/F ([2]; single oral dose 30 mg): 1.37 ± 0.58 L/h | Cmax ([2]; single oral dose 30 mg): 495.0 ± 154.2 ng/mL | Estimated amount circulating ([2]; single oral dose 30 mg): 10.40 ± 3.24 mg | Estimated minimum bioavailability ([2]; single oral dose 30 mg): 35 ± 11% | Ke ([2]; single oral dose 30 mg): 0.018 ± 0.0021 h⁻¹ | MTT ([2]; single oral dose 30 mg): 59 ± 4 h | T1/2 ([2]; single oral dose 30 mg): 39 ± 4 h | Tmax ([2]; single oral dose 30 mg): 6.0 ± 0.9 h | AUC(0-infinity) ([2]; single oral dose 30 mg): 24668 ± 7941 | AUC(0-168) ([2]; single oral dose 50 mg): 58816 ± 31297 ng·h/mL | AUC(0-last non-BLQ) ([2]; single oral dose 50 mg): 58816 ± 31297 ng·h/mL | AUMC ([2]; single oral dose 50 mg): 4719948 ± 3532459 hours^2*ng/ml | Cavg (0-168) ([2]; single oral dose 50 mg): 350.1 ± 186.3 ng/mL | Cl/F ([2]; single oral dose 50 mg): 0.97 ± 0.46 L/h | Cmax ([2]; single oral dose 50 mg): 1172 ± 459.4 ng/mL | Estimated amount circulating ([2]; single oral dose 50 mg): 24.61 ± 9.65 mg | Estimated minimum bioavailability ([2]; single oral dose 50 mg): 49% | Ke ([2]; single oral dose 50 mg): 0.015 ± 0.0027 h⁻¹ | MTT ([2]; single oral dose 50 mg): 67 ± 14 h | T1/2 ([2]; single oral dose 50 mg): 47 ± 9 h | Tmax ([2]; single oral dose 50 mg): 6.5 ± 0.8 h | estimated bioavailability, average of the other 4 subjects ([2]; single oral dose 50 mg): 38% | estimated bioavailability, 2 subjects with particularly high values ([2]; single oral dose 50 mg, individual subjects): 75% and 71% | AUC(0-infinity) ([2]; single oral dose 50 mg): 65628 ± 37141 | dose linearity of AUC and Cmax ([2]; single oral doses 1-50 mg): dose-linear and nearly dose-proportional | highest estimated bioavailability observed in individuals ([2]; single oral doses 1-50 mg): 75% | lowest estimated bioavailability observed in individuals ([2]; single oral doses 1-50 mg): 18% | IFN-γ plasma levels (interferon-γ (IFN-γ); 40 mg per day, 14 days, one subject (second had no detectable levels)): considerably reduced | IFN-γ plasma levels (interferon-γ (IFN-γ); 80 mg per day, 28 days, two subjects (third had no detectable levels)): considerably reduced
